29 molecules from US20250134869A1, “Pyrrolo[2,3-d]pyrimidinyl, Pyrrolo[2,3-b]pyrazinyl and Pyrrolo[2,3-d]pyridinyl Acryla-mides” (Pfizer Inc, priority 2021, published 2025) can be followed below.

The target in this assay is JAK3 enzyme (Homo sapiens (Human), UniProt P52333). Briefly: JAK Caliper Enzyme Assay at 4 μM or 1 mM ATP. The format is biochemical. The protocol: JAK Caliper Enzyme Assay at […] or 1 mM ATP
Test article was solubilized in dimethyl sulfoxide (DMSO) to a stock concentration of 30 mM. An 11-point half log dilution series was created in DMSO with a top concentration of 600 μM. […] The compound plates were diluted 1 to 60 resulting in a top final assay compound concentration of 10 μM and a 2% DMSO concentration.
Test article and assay controls were added to a 384-well plate. Reaction mixtures contained 20 mM HEPES, pH 7.4, 10 mM magnesium chloride, 0.01% bovine serum albumin (BSA), 0.0005% Tween […] or 1 mM ATP and […] peptide substrate. […] The assays were initiated by the addition 1 nM JAK3 enzyme and were incubated at room temperature 75 minutes for JAK3. Enzyme concentrations and incubation times were optimized for each new enzyme preps and were modified slightly over time to ensure 20%-30% phosphorylation. The assays were stopped with a final concentration of 10 mM EDTA, 0.1% Coating Reagent and 100 mM HEPES, pH=7.4. The assay plates were placed on a Caliper Life Science Lab Chip 3000 (LC3000) instrument, and each well was sampled using appropriate separation conditions to measure the unphosphorylated and phosphorylated peptide.

Where [1] appears, read: read-out: JAK3 (4 μM ATP) IC50, 4 μM ATP.
Where [2] appears, read: read-out: JAK3 (1 mM ATP) IC50, 1 mM ATP.

Read-outs that look alike come from different tables or passages of the source.

JAK3 enzyme, sequence (P52333 whole entry, species assumed): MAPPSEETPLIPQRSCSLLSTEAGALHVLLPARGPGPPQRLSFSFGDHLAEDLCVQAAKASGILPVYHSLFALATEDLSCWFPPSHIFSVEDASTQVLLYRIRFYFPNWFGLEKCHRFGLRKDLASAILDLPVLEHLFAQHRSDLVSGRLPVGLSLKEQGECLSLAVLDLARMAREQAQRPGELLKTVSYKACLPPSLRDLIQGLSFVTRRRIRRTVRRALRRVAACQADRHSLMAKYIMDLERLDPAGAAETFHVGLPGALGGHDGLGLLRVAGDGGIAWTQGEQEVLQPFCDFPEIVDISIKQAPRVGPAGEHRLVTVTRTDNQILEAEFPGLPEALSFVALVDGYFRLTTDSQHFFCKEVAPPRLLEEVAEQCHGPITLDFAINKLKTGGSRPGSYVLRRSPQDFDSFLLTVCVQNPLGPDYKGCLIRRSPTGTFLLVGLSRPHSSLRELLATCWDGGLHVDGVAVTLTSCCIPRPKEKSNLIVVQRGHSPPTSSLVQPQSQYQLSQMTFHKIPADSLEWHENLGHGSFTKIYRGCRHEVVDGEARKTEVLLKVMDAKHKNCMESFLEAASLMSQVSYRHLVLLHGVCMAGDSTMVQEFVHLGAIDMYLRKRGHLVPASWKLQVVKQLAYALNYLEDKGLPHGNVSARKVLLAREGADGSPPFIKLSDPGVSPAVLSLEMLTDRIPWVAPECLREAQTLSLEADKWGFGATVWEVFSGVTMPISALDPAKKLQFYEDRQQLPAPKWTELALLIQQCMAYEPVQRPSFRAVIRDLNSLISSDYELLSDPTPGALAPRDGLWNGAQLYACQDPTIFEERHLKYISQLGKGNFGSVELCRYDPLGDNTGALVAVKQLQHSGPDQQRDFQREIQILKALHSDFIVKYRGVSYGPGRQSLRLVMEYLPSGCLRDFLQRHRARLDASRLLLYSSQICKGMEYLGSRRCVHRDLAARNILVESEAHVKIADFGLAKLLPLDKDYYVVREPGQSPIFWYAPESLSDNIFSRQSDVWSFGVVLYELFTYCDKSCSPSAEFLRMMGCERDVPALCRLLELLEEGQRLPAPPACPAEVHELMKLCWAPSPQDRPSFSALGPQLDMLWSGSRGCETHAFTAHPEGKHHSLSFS

As a reminder, the IC50 is the concentration that gives 50% inhibition. On to `O=C(/C=C\CO)N1CCC[C@@H](Nc2ncnc3[nH]ccc23)C1` [Example 100, (2Z)-4-hydroxy-1-[(3R)-3-(7H-pyrrolo[2,3-d]pyrimidin-4-ylamino)piperidin-1-yl]but-2-en-1-one], for which the IC50 is, setting by setting: under setting [1], 654 nM; under setting [2], greater than 10000 nM.
On to `C=CC(=O)N1CCC(Nc2cnc3[nH]cc(C(=O)NC4CC(F)C4)c3n2)CC1` (stereo not drawn) [Example 243, 2-[(1-acryloylpiperidin-4-yl)amino]-N-(3-fluorocyclobutyl)-5H-pyrrolo[2,3-b]pyrazine-7-carboxamide], for which the half-inhibitory concentration (IC50) is less than 0.1 nM under setting [1] and 9 nM under setting [2].
On to `C=CC(=O)N1CCC(Nc2cnc3[nH]cc(-c4cnc(N5CCOCC5)nc4)c3n2)CC1` [Example 208, 1-[4-({7-[2-(morpholin-4-yl)pyrimidin-5-yl]-5H-pyrrolo[2,3-b]pyrazin-2-yl}amino)piperidin-1-yl]prop-2-en-1-one], for which the IC50 stood at 5.9 nM under setting [1] and 576 nM under setting [2].
For `C=CC(=O)N1CCC(Nc2cnc3[nH]cc(C(=O)NCC4CCCC4)c3n2)CC1` [Example 270, 2-[(1-acryloylpiperidin-4-yl)amino]-N-(cyclopentylmethyl)-5H-pyrrolo[2,3-b]pyrazine-7-carboxamide], the IC50 by setting is: under setting [1], less than 0.1 nM; under setting [2], 8.6 nM.
In the case of `C=CC(=O)N1CCC(Nc2cnc3[nH]cc(C(=O)N[C@@H]4CCC[C@@H]4F)c3n2)CC1` [Example 251, 2-[(1-acryloylpiperidin-4-yl)amino]-N-[(1R,2S)-2-fluorocyclopentyl]-5H-pyrrolo[2,3-b]pyrazine-7-carboxamide], the IC50 was 0.2 nM under setting [1] and 8.1 nM under setting [2].
The matching figures for `C=CC(=O)N1CCC(C)(Nc2cnc3[nH]cc(C(=O)NC(C)C)c3n2)CC1` [Example 318, 2-[(1-acryloyl-4-methylpiperidin-4-yl)amino]-N-(propan-2-yl)-5H-pyrrolo[2,3-b]pyrazine-7-carboxamide]: 0.3 nM and 21.3 nM.
The matching figures for `C/C=C\C(=O)N1CCC[C@@H](Nc2ncnc3[nH]ccc23)C1` [Example 102, (2Z)-1-[(3R)-3-(7H-pyrrolo[2,3-d]pyrimidin-4-ylamino)piperidin-1-yl]but-2-en-1-one]: 353 nM and greater than 10000 nM.
Turning to `C=CC(=O)N1CCC(Nc2cnc3[nH]cc(C(=O)N[C@H]4CC[C@H](F)C4)c3n2)CC1` [Example 247, 2-[(1-acryloylpiperidin-4-yl)amino]-N-[(1S,3S)-3-fluorocyclopentyl]-5H-pyrrolo[2,3-b]pyrazine-7-carboxamide], the concentration for half-maximal inhibition (IC50) stood at 0.2 nM under setting [1] and 8.2 nM under setting [2].
With `C=CC(=O)N1CCC[C@H](Nc2ncnc3[nH]ccc23)C1` [Example 104, 1-[(3S)-3-(7H-pyrrolo[2,3-d]pyrimidin-4-ylamino)piperidin-1-yl]prop-2-en-1-one], the IC50 under setting [1] turned out to be 64.5 nM.
Turning to `C=CC(=O)N1CCC(Nc2cnc3[nH]cc(-c4cncc(F)c4)c3n2)CC1` [Example 212, 1-(4-{[7-(5-fluoropyridin-3-yl)-5H-pyrrolo[2,3-b]pyrazin-2-yl]amino}piperidin-1-yl)prop-2-en-1-one], the IC50 under setting [1] came out at 0.3 nM and the IC50 under setting [2] was 16 nM.
In the case of `C=CC(=O)N1C[C@H](Nc2ncnc3[nH]ccc23)C[C@H](N(C)C)C1` [Example 57, 1-((3R,5S)-3-((7H-Pyrrolo[2,3-d]pyrimidin-4-yl)amino)-5-(dimethylamino)piperidin-1-yl)prop-2-en-1-one], the IC50 was 1.4 nM under setting [1] and 361 nM under setting [2].
As to `C=CC(=O)N1CCN(c2cnc3[nH]cc(C(=O)NC(C)C)c3n2)C[C@@H]1CC` [Example 299, 2-[(3S)-4-acryloyl-3-ethylpiperazin-1-yl]-N-(propan-2-yl)-5H-pyrrolo[2,3-b]pyrazine-7-carboxamide], the 50% inhibitory concentration (IC50) was 0.7 nM under setting [1] and 55.6 nM under setting [2].
`C=CC(=O)N[C@H]1CC[C@@H](Nc2cnc3[nH]cc(C(=O)NC(C)C)c3n2)CC1` [Example 182, 2-{[cis-4-(acryloylamino)cyclohexyl]amino}-N-(propan-2-yl)-5H-pyrrolo[2,3-b]pyrazine-7-carboxamide]: the 50% inhibitory concentration (IC50) by setting is: under setting [1], 11.4 nM; under setting [2], 975 nM.
The matching figures for `C=CC(=O)N1CC[C@@H](Nc2cnc3[nH]cc(C(=O)NC(C)C)c3n2)[C@@H](OC)C1` [Example 302, 2-{[(3S,4R)-1-acryloyl-3-methoxypiperidin-4-yl]amino}-N-(propan-2-yl)-5H-pyrrolo[2,3-b]pyrazine-7-carboxamide]: 1.2 nM and 49.4 nM.
In the case of `C=CC(=O)N1CCC(Nc2cnc3[nH]cc(-c4ccc(S(C)(=O)=O)cc4)c3n2)CC1` [Example 203, 1-[4-({7-[4-(methylsulfonyl)phenyl]-5H-pyrrolo[2,3-b]pyrazin-2-yl}amino)piperidin-1-yl]prop-2-en-1-one], the 50% inhibitory concentration (IC50) by setting is: under setting [1], 2 nM; under setting [2], 148 nM.
The matching figures for `O=C(/C=C/CF)N1CC[C@@H]2CCN(c3ncnc4[nH]ccc34)[C@@H]2C1` [Example 87, (2E)-4-fluoro-1-[(3aS,7aS)-1-(7H-pyrrolo[2,3-d]pyrimidin-4-yl)octahydro-6H-pyrrolo[2,3-c]pyrdin-6-yl]but-2-en-1-one]: 139 nM and greater than 10000 nM.
As for `C=CC(=O)N1CC[C@@H](C)[C@@H](N(C)c2ncnc3[nH]ccc23)C1` [Example 130, 1-{(3R,4R)-4-Methyl-3-[methyl(7H-pyrrolo[2,3-d]pyrimidin-4-yl)amino]piperidin-1-yl}prop-2-en-1-one], the 50% inhibitory concentration (IC50) under setting [1] is 75.2 nM.
As to `C=CC(=O)N1C[C@H](Nc2ccnc3[nH]cc(C#N)c23)CC[C@@H]1C` [Example 165, 4-{[(3R,6S)-1-Acryloyl-6-methylpiperidin-3-yl]amino}-1H-pyrrolo[2,3-b]pyridine-3-carbonitrile], the IC50 amounted to 0.5 nM under setting [1] and 22.7 nM under setting [2].
Regarding `C=CC(=O)N1CCN(c2cnc3[nH]cc(C(=O)NC(C)C)c3n2)CC1(C)C` [Example 293, 2-(4-acryloyl-3,3-dimethylpiperazin-1-yl)-N-(propan-2-yl)-5H-pyrrolo[2,3-b]pyrazine-7-carboxamide], the IC50 under setting [1] was 0.6 nM and the IC50 under setting [2] amounted to 107 nM.
The matching figures for `C=CC(=O)N1CC[C@H](Nc2cnc3[nH]cc(C(=O)NC(C)C)c3n2)C1` [Example 171, 2-{[(3S)-1-acryloylpyrrolidin-3-yl]amino}-N-(propan-2-yl)-5H-pyrrolo[2,3-b]pyrazine-7-carboxamide]: 0.4 nM and 32.7 nM.
On to `C=CC(=O)N1CCC[C@@H](Nc2ncnc3[nH]cc(F)c23)C1` [Example 42, 1-{(3R)-3-[(5-fluoro-7H-pyrrolo[2,3-d]pyrimidin-4-yl)amino]piperidin-1-yl}prop-2-en-1-one], for which the IC50 was found to be 0.9 nM under setting [1] and 94.4 nM under setting [2].
On to `C=CC(=O)N1CCC(Nc2cnc3[nH]cc(C(=O)NCCCC)c3n2)CC1` [Example 269, 2-[(1-acryloylpiperidin-4-yl)amino]-N-butyl-5H-pyrrolo[2,3-b]pyrazine-7-carboxamide], for which the IC50 reads like this: under setting [1], 0.2 nM; under setting [2], 7.3 nM.
With `C=CC(=O)N1CCC(Nc2cnc3[nH]cc(-c4ccccc4)c3n2)CC1` [Example 209, 1-{4-[(7-phenyl-5H-pyrrolo[2,3-b]pyrazin-2-yl)amino]piperidin-1-yl}prop-2-en-1-one], the IC50 under setting [1] turned out to be 0.2 nM and the IC50 under setting [2] turned out to be 14.3 nM.
For the molecule `C=CC(=O)N1CCC[C@@H](Nc2ncnc3[nH]cc(C(=O)NC)c23)C1` [Example 145, 4-{[(3R)-1-acryloylpiperidin-3-yl]amino}-N-methyl-7H-pyrrolo[2,3-d]pyrimidine-5-carboxamide], the IC50 under setting [1] is 112 nM.
As for `C=CC(=O)N1CCC(Nc2cnc3[nH]cc(C(=O)N[C@H](CC)CC#N)c3n2)CC1` [Example 263, 2-[(1-acryloylpiperidin-4-yl)amino]-N-[(2R)-1-cyanobutan-2-yl]-5H-pyrrolo[2,3-b]pyrazine-7-carboxamide], the half-maximal inhibitory concentration (IC50) by setting is: under setting [1], 0.2 nM; under setting [2], 8.7 nM.
The matching figures for `C=CC(=O)N1CC[C@@H](CNc2cnc3[nH]cc(C(=O)NC(C)C)c3n2)C1` [Example 191, 2-({[(3S)-1-acryloylpyrrolidin-3-yl]methyl}amino)-N-(propan-2-yl)-5H-pyrrolo[2,3-b]pyrazine-7-carboxamide]: 1.5 nM and 138 nM.
Take `C=CC(=O)N1CCC(Nc2cnc3[nH]cc(-c4ccnc(F)c4)c3n2)CC1` [Example 211, 1-(4-{[7-(2-fluoropyridin-4-yl)-5H-pyrrolo[2,3-b]pyrazin-2-yl]amino}piperidin-1-yl)prop-2-en-1-one]: the IC50 by setting is: under setting [1], 0.2 nM; under setting [2], 34.2 nM.
With `C=CC(=O)NC1CN(c2cnc3[nH]ccc3n2)C1` [Example 192, N-[1-(5H-pyrrolo[2,3-b]pyrazin-2-yl)azetidin-3-yl]prop-2-enamide], the IC50 under setting [1] stood at 272 nM.
On to `C=CC(=O)N1CCC(Nc2cnc3[nH]cc(C(=O)NC4CCCC4)c3n2)CC1` [Example 283, 2-[(1-acryloylpiperidin-4-yl)amino]-N-cyclopentyl-5H-pyrrolo[2,3-b]pyrazine-7-carboxamide], for which the IC50 runs as follows: under setting [1], 0.3 nM; under setting [2], 7.6 nM.
